According to article PMC9664868, “Dephospho-Coenzyme A Kinase Is an Exploitable Drug Target against Plasmodium falciparum: Identification of Selective Inhibitors by High-Throughput Screening of a Large Chemical Compound Library” (Antimicrobial Agents and Chemotherapy, 2022):
Where two headings read alike, the source gives them in different places. Each block holds one molecule with its values, some of them ahead of it.

Key:
HsCOASY = target: T1, HsCOASY (Homo sapiens, UniProt Q13057); assay: Kinetic analysis of recombinant HsCOASY (ADP Hunter Plus); format: biochemical; settings: substrate of HsCOASY
T1 construct: His tag (pCold1 vector); made in house; host or cells: Escherichia coli BL21Star (DE3)
T1 sequence (Q13057 1-564): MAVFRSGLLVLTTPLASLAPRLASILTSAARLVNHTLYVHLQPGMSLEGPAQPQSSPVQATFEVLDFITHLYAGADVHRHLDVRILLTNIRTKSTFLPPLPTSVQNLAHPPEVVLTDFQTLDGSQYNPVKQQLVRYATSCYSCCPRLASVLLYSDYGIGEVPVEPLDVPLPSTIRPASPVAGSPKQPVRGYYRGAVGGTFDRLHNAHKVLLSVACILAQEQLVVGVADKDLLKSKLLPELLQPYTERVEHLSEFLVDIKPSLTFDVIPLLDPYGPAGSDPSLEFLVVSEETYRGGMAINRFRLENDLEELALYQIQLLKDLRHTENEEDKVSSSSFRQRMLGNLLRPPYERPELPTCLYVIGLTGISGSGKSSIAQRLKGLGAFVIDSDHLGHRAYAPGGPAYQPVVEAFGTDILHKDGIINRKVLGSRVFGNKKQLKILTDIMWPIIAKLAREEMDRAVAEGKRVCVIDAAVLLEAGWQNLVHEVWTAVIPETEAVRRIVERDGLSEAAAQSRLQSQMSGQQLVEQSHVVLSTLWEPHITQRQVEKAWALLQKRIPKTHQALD
Method: (§1) PfDPCK and HsCOASY activity was measured by quantifying ADP produced in the reaction by a coupling assay using the ADP Hunter Plus assay kit (DiscoverX, USA) according to the manufacturer's instructions. Briefly, enzymatic reactions were carried out in a 20-μL mixture of assay buffer containing 15 mM HEPES, 20 mM NaCl, 1 mM EGTA, 0.02% Tween 20, 10 mM MgCl2, 0.1% bovine gamma globulin, 50 ng of recombinant PfDPCK or HsCOASY, 4 to 256 μM dephospho-CoA, and 5 to 300 μM ATP on a black microplate. All reactions were performed for 2 h, reagents A and B were added, and they were then reincubated for 60 min at 30°C. After reactions were terminated by addition of ADP Hunter Stop solution, the fluorescent signal was measured using SpectraMax Paradigm (Molecular Devices, CA, USA) at excitation and emission wavelengths of 530 and 590 nm, respectively. The kinetic parameters were calculated using the nonlinear regression function using the single saturating concentrations of the substrates by the GraphPad Prism software (GraphPad Software Inc., San Diego, CA). The experiments were repeated three times in triplicate using proteins purified from independent cultures. Kinetic values of enzymes are presented as the means ± standard errors (SEs).

PfDPCK [1] = target: T2, PfDPCK (Plasmodium falciparum, UniProt Q8IL34); assay: Kinetic analysis of recombinant PfDPCK (ADP Hunter Plus); format: biochemical
Method: as §1

[2] = test system: P. falciparum drug-sensitive 3D7 strain; assay: Erythrocytic-stage parasite growth inhibition, diaphorase-coupled LDH assay, 3D7; format: cell-based, Plasmodium falciparum
Method: (§2) Selected hit compounds were also tested against erythrocytic-stage parasites of P. falciparum drug-sensitive 3D7 and drug-resistant Dd2 strains ([39]). For the phenotypic assay, parasite cultures were synchronized with 5% (wt/vol) D-sorbitol as previously described ([40]). A synchronized culture containing ring-stage parasites of 0.3% parasitemia was initiated with a culture volume of 25 μL/well on a 384-well plate. A series of diluted compounds (at final concentrations of 50, 10, 2, 0.4, and 0.08 μM) were used to calculate IC50 values. Mefloquine at 50 μM and atovaquone at 20 μM were used as no-growth control (100% inhibition). After 72 h of incubation, parasite growth was measured by diaphorase-coupled lactate dehydrogenase (LDH) assay as previously described ([41]). Absorbance at 650 nm was measured using SpectraMax Paradigm multimode microplate reader (Molecular Devices, San Jose, CA, USA). The IC50 values were calculated as described above.

[3] = test system: P. falciparum drug-resistant Dd2 strain; assay: Erythrocytic-stage parasite growth inhibition, diaphorase-coupled LDH assay, Dd2; format: cell-based, Plasmodium falciparum; settings: for IC50: Plasmodium falciparum
Method: as §2

PfDPCK [4] = target: T2, PfDPCK; assay: PfDPCK inhibition, enzyme-coupled fluorescence ADP detection assay (HTS and IC50 determination); format: biochemical
Method: High-throughput screening against recombinant PfDPCK was performed using the Drug Discovery Initiative (DDI) full library, available from The University of Tokyo, composed of approximately 210,000 compounds. The primary assay was performed on 1,536-well white plate format with a final volume of 2 μL/well, containing 10 μM test compounds using a Multidrop Combi reagent dispenser (Thermo Fisher Scientific, Waltham, MA). The reaction was conducted in the assay buffer described above with 100 μM ATP and 50 μM dephospho-CoA. The assay was carried out at room temperature for 4 h in a closed plastic container with wet tissues. The reaction was stopped, and produced ADP was quantified using an enzyme-coupled fluorescence ADP detection assay, using PHERAstar microplate reader (BMG Labtech, Offenburg, Germany) with excitation at 540 nm and emission at 590 nm, as previously described ([17]). The inhibition level was calculated as the percentage inhibition of DPCK activity with each compound compared to the activity with only dimethyl sulfoxide (DMSO) as control (no inhibition) and that with no enzyme as 100% inhibition. IC50 values of the hit compounds were determined under the same assay conditions for the screening: Z′ factor, signal-to-background ratio (S/B), signal-to-noise ratio (S/N), and coefficient of variation (CV) were calculated to estimate the quality of screening system as previously described ([18], [38]).
The primary hits were reassayed in quadruplicate (n = 4) as in the primary screening. We next tested the confirmed secondary hits to exclude false positives that inhibit coupled fluorescence assay, but not PfDPCK. After exclusion of false positives, all tertiary hits were tested against human HsCOASY in the counterassay to exclude compounds that inhibit both PfDPCK and HsCOASY. The compounds showing >10% inhibition against HsCOASY were excluded from further studies. The IC50 values of the hit compounds were determined under the same assay conditions described as above for the primary screening, with the serially diluted compounds at 20, 10, 2.5, 0.5, and 0.1 μM at final concentrations. The assay was conducted in quadruplicate for each dilution, and IC50 values were calculated using GraphPad Software (San Diego, California USA).

HepG2 cell line = assay: Cytotoxicity assay (Cell Counting Kit-8); format: cell-based, human; settings: Homo sapiens, HepG2, read-out: IC50 (μM) of: HepG2
Method: Cytotoxicity against human cells was evaluated using the human liver carcinoma HepG2 cell line. HepG2 cells were cultured in D-MED supplemented with 4 mM L-glutamine and 10% fetal bovine serum (FBS) in a 75-cm^2 flask (Violamo) at 37°C. For the cytotoxicity assay, HepG2 cells in semiconfluent state were detached from the flask by incubating the cells with 5 mL D-MEM containing 0.25% trypsin-EDTA. After detachment, HepG2 cells were resuspended in D-MEM-supplemented L-glutamine and FBS, and cell viability was evaluated by incubating cells with 0.4% Trypan blue on a hemocytometer. An approximately 50-μL suspension containing 3,000 cells was dispensed into each well on a 384-well clear-bottom plate using a Multidrop Combi dispenser. Compounds dissolved in DMSO had been dispensed into wells to yield final concentrations of 100, 20, 4, 0.8, and 0.2 μM before cells were added. After cells were added to the plates, they were cultured at 37°C under 5% CO2. After 48 h cultivation, 5 μL of Cell Counting Kit-8 (Dojindo, Japan) was added, and the plates were further incubated for 2 h to assess cell growth and survival.

PfDPCK [5] = target: T2, PfDPCK; assay: Mechanism of PfDPCK inhibition by Lineweaver-Burk plot; format: biochemical
Method: In order to understand the mechanism of PfDPCK inhibition of the identified compounds, we independently selected compounds from 359 PfDPCK-specific inhibitor candidates (showing >40% inhibition at 10 μM against PfDPCK), based on the more stringent criteria of >80% inhibition at 10 μM against PfDPCK and <10% inhibition against HsCOASY, to yield 30 hits. The hits were prioritized using a multiparameter optimization (MPO) scoring model, developed by MMV (https://www.optibrium.com/downloads/scoring-profiles/mmv-antimalarial-scoring-profile/) based on calculated physicochemical properties, including molecular weight, logP, hydrogen bond donors and acceptors, rotatable bonds, and structural alerts ([20], [21]). We finally chose six representative compounds (A-15, A-33, and A-69, shown in Table S1, and other three compounds; A-126, A-127, and A-128) by manual inspection with “chemist eye” for chemical attractiveness (druglikeness). […] Furthermore, two compounds, A-33 and A-69, are considered to be pan-assay interference compounds (PAINS) (phenolic Mannich base) ([22]). We consequently focused on two commercially available compounds (A-15 and A-127) (Fig. 6A) and investigated their mechanism of inhibition. We differentiated the type of inhibition by Lineweaver-Burk plot with various concentrations of one substrate (dephospho-CoA or ATP), while the other substrate was given in saturating concentrations in kinetic studies (Fig. 5).
FIG 5 Lineweaver-Burk plots showing inhibition of two compounds, compound A-15 (A, B) and compound A-127 (C, D) on the PfDPCK activity. The enzymatic activities were determined with various concentrations of dephospho-CoA and 200 μM ATP (A, C) or various concentrations of ATP and 200 μM dephospho-CoA (B, D) in the presence of a range of concentrations of inhibitors. Data are shown in means ± SEMs of triplicate.
as §1

[6] = substrate: CC(C)(COP(=O)(O)OP(=O)(O)OCC1OC(n2cnc3c(N)ncnc32)C(O)C1O)C(O)C(=O)NCCC(=O)NCCS; assay: Kinetic analysis of recombinant HsCOASY (ADP Hunter Plus); format: biochemical, human; settings: other: substrate of HsCOASY; 30.0 °C
Method: as §1

[7] = substrate: CC(C)(COP(=O)(O)OP(=O)(O)OCC1OC(n2cnc3c(N)ncnc32)C(O)C1O)C(O)C(=O)NCCC(=O)NCCS; assay: Kinetic analysis of recombinant PfDPCK (ADP Hunter Plus); format: biochemical, Plasmodium falciparum; settings: other: substrate of PfDPCK; 30.0 °C
Method: as §1

[8] = Plasmodium falciparum, drug-sensitive 3D7, 72 h, means ± SEMs, read-out: IC50 (μM) of: Pf cell 3D7
[9] = drug-resistant Dd2, 72 h, means ± SEMs, read-out: IC50 (μM) of: Pf cell Dd2
[10] = recombinant enzyme, means ± SEMs, read-out: IC50 (μM) of: PfDPCK

Molecule: Nc1ncnc2c1ncn2[C@@H]1O[C@H](COP(=O)(O)OP(=O)(O)OP(=O)(O)O)[C@@H](O)[C@H]1O [ATP]
- Km (HsCOASY): 115 ± 13.1 µM
- Km (PfDPCK [1]; substrate of PfDPCK): 88.1 ± 11 µM

- IC50 [2, 8]: 6.04 ± 0.05 µM
- IC50 [3, 9]: 0.7 ± 0.22 µM
- IC50 (PfDPCK [4]; [10]): 8.69 ± 0.01 µM
Molecule: O=Cc1cc(C23CC4CC(CC(C4)C2)C3)cc([N+](=O)[O-])c1O [Compound A-63]
- Selectivity index IC50 (HepG2/3D7) ([2]; HepG2 IC50 / 3D7 IC50): >16.6
- Selectivity index IC50 (HepG2/Dd2) ([3]; HepG2 IC50 / Dd2 IC50): >142.8
- IC50 (HepG2 cell line; 48 h, means ± SEMs): > 100 µM

- IC50 [2, 8]: 4.4 ± 0.05 µM
- IC50 [3, 9]: 0.36 ± 0.1 µM
- IC50 (PfDPCK [4]; [10]): 9.21 ± 0.12 µM
Molecule: S=C(NCCc1ccccc1)NNc1nc2ccccc2[nH]1 [Compound A-65]
- IC50 (HepG2 cell line; ND (maximum concentration tested 100 μM)): > 100 µM

- IC50 ([2]; Plasmodium falciparum, 3D7, Table S1, means ± SEM, read-out: IC50 (μM) Pf cell 3D7): < 2 µM
- Ki (PfDPCK [5]; in respect of ATP, 200 μM dephospho-CoA): 8.99 µM
- Ki (PfDPCK [5]; in respect of dephospho-CoA, 200 μM ATP): 14.9 µM
- IC50 ([3]; DD2, Table S1, means ± SEM, read-out: IC50 (μM) Pf cell Dd2): < 10 µM
- IC50 (PfDPCK [4]; Table S1, means ± SEM, read-out: IC50 (μM) Pf DPCK): 5.01 ± 0.46 µM
Molecule: COc1cc(N2CCCC2)cc2ccc(-c3ccccn3)nc12 [Compound A-127]
- inhibition at 2 µM ([2]; Plasmodium falciparum, 3D7, at 2 μM, read-out: growth inhibition against 3D7): 80%
- type of inhibition (PfDPCK [5]; in respect of dephospho-CoA and ATP, Lineweaver-Burk plot): uncompetitive or noncompetitive inhibition

Molecule: CC(C)(CO)[C@@H](O)C(=O)NCCC(=O)O [pantothenate]
- specific activity (PfDPCK [1]; as a substrate of PfDPCK): < 0.01 µmol/min/mg

B1: HsCOASY (Homo sapiens) (protein)
chain: T1 sequence (Q13057 1-564)
notes: His tag (pCold1 vector); made in house; host or cells: Escherichia coli BL21Star (DE3)
- Km [6]: 85.35 ± 13.4 µM

B2: PfDPCK (Plasmodium falciparum 3D7) (protein)
chain: MFLKFFLDKCILCFLALGSIPIGYINRKNKFRKIENQKYALFSSIVMNSFLIYLNKFFGILGIFNFFLGNYLCLIGITGGIAVGKSTFCNFLKKKDVVVINADEITSKIYTKDSICYKKIVKHFGENILNNDKSINRTLLRKIVFNNEENVKYINKITHTYIILQIIKECLKYKFLYFKYNVAIEAPLLIETKLYLLTSPVILLKSSVRNQIKRILSRDKNCTYDTAMGIIKNQLPTDEKIKYADIIINNDGDILDLQMKCDVVYNKYLKNFFF
- Km [7]: 105.3 ± 10.2 µM
